Laboratory results taken from patent US20220322667A1, “MICROBIOCIDAL USE” (DSM IP ASSETS B.V., priority 2019, published 2022).

Experiments:
Test in all cases: Antimicrobial challenge test in analogy to NF EN ISO 11930
Assay type in all cases: cell-based
[1] = test system: Aspergillus brasiliensis; details: 0.3 wt.-% DBO, 24 h at 22° C.
Protocol: The antimicrobial efficacy was assessed in analogy to the regulatory challenge test method (NF EN IS011930). Thus, mixtures of the respective active(s) with physiological serum with 0.85 wt.-% NaCl in the concentrations as outlined below are prepared under sterile conditions. Controls were also prepared under sterile conditions. The control as well as the mixtures were then deposed in 96-deep well plates (1.6 ml/well). […] After the contamination, each well was thoroughly mixed to ensure a homogeneous distribution of microbes. Then each plate was incubated at 22° C. for 24 h. The counting of the (remaining) population is carried out 24 h after contamination. Then, the average log reduction is calculated [−log 10{(value inoculum)/(value sample)}] which is represented in tables 1-5.

[2] = test system: Candida albicans
Protocol: (§1) The antimicrobial efficacy was assessed in analogy to the regulatory challenge test method (NF EN IS011930). Thus, mixtures of the respective active(s) with physiological serum with 0.85 wt.-% NaCl in the concentrations as outlined below are prepared under sterile conditions. Controls were also prepared under sterile conditions. The control as well as the mixtures were then deposed in 96-deep well plates (1.6 ml/well). The wells were contaminated with the respective bacterial or the fungal strains at 2.5*10^5 to 5.6*10^5 cfu/ml for the bacteria and 1*10^4 to 2.5*10^4 cfu/ml for the fungi to obtain the initial contamination as outlined below. After the contamination, each well was thoroughly mixed to ensure a homogeneous distribution of microbes. Then each plate was incubated at 22° C. for 24 h. The counting of the (remaining) population is carried out 24 h after contamination. Then, the average log reduction is calculated [−log 10{(value inoculum)/(value sample)}] which is represented in tables 1-5.

[3] = test system: Staphylococcus aureus; details: 0.3 wt.-% HAP, 24 h
Protocol: as §1

[4] = test system: Escherichia coli; details: 0.2 wt.-% Sodium Benzoate, 24 h
Protocol: as §1

For `c1ccc2oc(-c3ccc(-c4nc5ccccc5o4)cc3)nc2c1` [DBO, 1,4-di(benzoxazol-2′-yl)benzene], the Log reduction [1] was −2.05, the “24 h colony count” value ([1]; inoculum 45000 cfu/ml) was 400 cfu/ml and the Log reduction ([2]; 0.3 wt.-% DBO, 24 h at 22° C.) was −0.51. For the same molecule, the “24 h colony count” value ([2]; 0.3 wt.-% DBO, 24 h at 22° C., inoculum 32000 cfu/ml) was 10000 cfu/ml.
For `CC(=O)c1ccc(O)cc1` [HAP, 1-(4-hydroxyphenyl)-ethanone], the Log reduction [3] was −1.16 and the “Staphylococcus aureus colony count” value ([3]; 550000 cfu/ml at 0 h) was 70000 cfu/ml.
With `OCCCO` [PDO, 1,3-propanediol] the Log reduction ([2]; 1.0 wt.-% PDO, 24 h) was −0.24 and the “Candida albicans colony count” value ([2]; 1.0 wt.-% PDO, 24 h, 70000 cfu/ml at 0 h) was 40000 cfu/ml.
`O=C([O-])c1ccccc1.[Na+]` [Sodium Benzoate, sodium benzoate] was tested, and the Log reduction [4] was “+0.40” and the “Escherichia coli colony count” value ([4]; 400000 cfu/ml at 0 h) was 1000000 cfu/ml.
